{"source": "paper PMC6778861", "about": "“Radiosynthesis and Preclinical Evaluation of ^11C-VA426, a Cyclooxygenase-2 Selective Ligand” (Contrast Media & Molecular Imaging, 2019)", "key": {"COX-2 [1]": {"system": "COX-2", "design": "method as in PMID 18598017", "conditions": "in vitro; cited from earlier work"}, "[2]": {"design": "method as in PMID 18598017", "conditions": "previous study; cited from earlier work"}, "[3]": {"experiment": "Ex vivo biodistribution kinetic profile in healthy rats", "design": "species or system Sprague Dawley rats", "description": "Nine SD rats were injected through the tail vein with 9.25 ± 2.5 MBq of ^11C-VA426 and euthanized under general anaesthesia, with a mixture of 4% isoflurane in air, at different time points (10, 30, and 60 minutes) from injection (n = 3 per time). Blood was collected by retro-orbital sampling immediately before the sacrifice. Plasma was separated by centrifugation, and 100 μL of blood and plasma were counted in a γ-counter (LKB Compugamma CS 1282). Peripheral organs (heart, lung, liver, intestine, kidney, testis, and muscle) and brain regions (frontal, right and left cortex, right and left striatum, hippocampus, thalamus, hypothalamus, pons, and cerebellum) were immediately removed and rinsed in cold saline solution. Each sample was then placed in a test tube and weighed, and the radioactivity was measured using a γ-counter (LKB Compugamma CS 1282). An additional aliquot (0.1 mL) of radioactive solution was diluted to 1 : 10, 1 : 100, and 1 : 1000 and used to calculate the standard curve. Radioactivity concentration was calculated as the percentage of injected dose per gram of tissue (%ID/g)."}, "COX-2 [4]": {"target": "T1, COX-2 (Rattus norvegicus, UniProt P35355)", "T1 construct": "from tissue; host or cells: peripheral organs and brain regions of Sprague Dawley rats (in vivo / ex vivo biodistribution)", "T1 sequence (P35355 18-604)": "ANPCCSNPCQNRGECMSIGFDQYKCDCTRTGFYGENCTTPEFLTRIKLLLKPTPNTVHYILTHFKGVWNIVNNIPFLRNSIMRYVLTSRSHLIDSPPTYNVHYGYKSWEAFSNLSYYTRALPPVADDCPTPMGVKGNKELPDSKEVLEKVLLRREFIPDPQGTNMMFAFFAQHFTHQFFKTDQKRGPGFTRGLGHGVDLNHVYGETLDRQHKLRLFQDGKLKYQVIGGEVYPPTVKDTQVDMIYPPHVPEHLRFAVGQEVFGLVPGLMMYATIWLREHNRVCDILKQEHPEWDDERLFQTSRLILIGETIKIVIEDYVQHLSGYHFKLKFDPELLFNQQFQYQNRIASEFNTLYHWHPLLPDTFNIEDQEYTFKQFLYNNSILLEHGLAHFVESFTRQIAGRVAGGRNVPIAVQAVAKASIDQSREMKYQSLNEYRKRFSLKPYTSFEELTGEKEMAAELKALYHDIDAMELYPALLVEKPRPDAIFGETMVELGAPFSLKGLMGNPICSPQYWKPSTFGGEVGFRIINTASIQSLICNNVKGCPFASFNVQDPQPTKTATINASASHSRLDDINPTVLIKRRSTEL", "experiment": "Specificity (celecoxib competition) study in healthy rats", "type": "in vivo, Sprague Dawley rats", "conditions": "30 min p.i.", "description": "In order to evaluate the radiotracer binding specificity to COX-2 in healthy rats, a competition study was performed. Two minutes before the intravenous injection of ^11C-VA426, four animals were pretreated with the COX-2 specific inhibitor celecoxib (Sigma-Aldrich, Italy) (10 mg/kg, i.v.) and four animals with vehicle solution alone (100 μl of DMSO, Sigma-Aldrich). All rats were then injected intravenously with 9.25 ± 2.7 MBq of ^11C-VA426 and sacrificed at the time of maximum uptake (30 minutes p.i.), previously assessed in the kinetic study. Central and peripheral samples were dissected as described above and counted, following the same protocol used for the biodistribution kinetic study. Radioactivity concentration in samples was calculated as %ID/g."}, "COX-2 [5]": {"target": "T1, COX-2", "experiment": "Biodistribution kinetic profile in brain inflammation (intrastriatal LPS) rat model", "type": "in vivo, Sprague Dawley rats", "conditions": "rats", "description": "In order to trigger nigrostriatal inflammation, eighteen SD rats were anesthetized (zoletil, 25 mg/kg, i.p.) and stereotaxically injected into the right striatum with 3 μL (3.33 μg/μl) of lipopolysaccharide (LPS, Sigma-Aldrich, Italy) and in the contralateral hemisphere with saline (negative control) at the following coordinates: A = +0.5, L = ±3.0, and V = –5.0 mm. One day after LPS injection, the first experimental group (n = 9) was injected through the tail vein with 9.25 ± 2.2 MBq of ^11C-VA426, and three rats per time point (10, 30, and 60 minutes) were euthanized under general anaesthesia, with a mixture of 4% isoflurane in air. Central and peripheral samples were dissected as described above and counted, following the protocol described for the biodistribution kinetic study. Twelve days after LPS injection, the second group of animals (n = 9) underwent the same protocol. Radioactivity concentration in samples was calculated as %ID/g."}, "[6]": {"experiment": "Ex vivo biodistribution kinetic profile in healthy mice", "design": "species or system CD-1 mice", "conditions": "i.v.", "description": "Male CD-1 mice were injected through the tail vein with 5.3 ± 1.4 MBq of ^11C-VA426 and sacrificed after 10, 30, and 60 minutes (n = 3 per time point) under general anaesthesia with a mixture of 4% isoflurane in air. Blood was collected by retro-orbital sampling immediately before sacrifice. Plasma was separated by centrifugation, and 100 μL of blood and plasma were counted in a γ-counter (LKB Compugamma CS 1282). Different peripheral organs (heart, lung, liver, intestine, stomach, spleen, kidney, testis, and muscle) and brain regions (cortex, striatum, hippocampus, thalamus, hypothalamus, pons, substantia nigra, and cerebellum) were immediately sampled, rinsed with cold saline, and placed in preweighed tubes for counting. Radioactivity concentration was calculated as %ID/g."}, "COX-2 [7]": {"target": "T2, COX-2 (Mus musculus, UniProt Q05769)", "T2 construct": "from tissue; host or cells: organs of living mice (PET in healthy CD-1 mice)", "T2 sequence (Q05769 18-604)": "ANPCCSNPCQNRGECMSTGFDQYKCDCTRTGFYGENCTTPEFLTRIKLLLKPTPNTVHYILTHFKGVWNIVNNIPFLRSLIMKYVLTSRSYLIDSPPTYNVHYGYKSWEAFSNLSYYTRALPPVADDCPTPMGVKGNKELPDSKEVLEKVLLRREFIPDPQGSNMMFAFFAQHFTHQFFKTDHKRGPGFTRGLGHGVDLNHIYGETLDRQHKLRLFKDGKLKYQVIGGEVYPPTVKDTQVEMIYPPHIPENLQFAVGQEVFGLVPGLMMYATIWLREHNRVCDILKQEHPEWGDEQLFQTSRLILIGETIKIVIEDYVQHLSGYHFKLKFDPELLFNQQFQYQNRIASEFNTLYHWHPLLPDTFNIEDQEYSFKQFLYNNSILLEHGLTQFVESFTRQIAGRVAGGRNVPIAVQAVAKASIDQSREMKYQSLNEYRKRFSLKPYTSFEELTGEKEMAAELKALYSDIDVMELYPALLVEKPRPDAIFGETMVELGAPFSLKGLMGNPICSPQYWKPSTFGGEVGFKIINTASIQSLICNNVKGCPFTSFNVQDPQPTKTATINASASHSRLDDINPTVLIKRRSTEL", "experiment": "PET kinetic study in healthy mice", "type": "in vivo, CD-1 mice", "description": "Two CD-1 mice were anaesthetized with a mixture of 4% isoflurane in air for the imaging with the YAP-(S)PET system (ISE Srl). Each mouse was placed in a prone position on the PET scanner bed with the abdomen centred in the field of view (FOV). Five minutes before the intravenous injection of ^11C-VA426, one mouse was pretreated with the COX-2 specific inhibitor celecoxib (10 mg/kg, i.v.) in vehicle (100 μl of DMSO, mouse 1) and the other with vehicle alone (mouse 2). Mouse 1 was then injected intravenously with 1.85 MBq of ^11C-VA426 and mouse 2 with 3.7 MBq, and dynamic PET data were acquired for 30 minutes, according to the following schedule: four scans of 2.5 minutes followed by four of 5 minutes. PET data were acquired in list mode, using the full axial acceptance angle of the scanner (3D mode) and then reconstructed with the expectation maximization (EM) algorithm. All images were calibrated with a dedicated phantom, corrected for the radionuclide half-life decay, and quantified as ID/g."}, "COX-2 [8]": {"target": "T2, COX-2", "experiment": "Specificity evaluation in peripheral inflammation (i.p. LPS) mouse model", "type": "in vivo", "conditions": "LPS-treated mice, celecoxib 10 mg/kg i.v., 10 minutes p.i.", "description": "Specificity evaluation studies of ^11C-VA426 were performed on a murine model of peripheral inflammation, after COX-2 specific inhibitor administration. Six hours before the study, six mice received intraperitoneal injection of lipopolysaccharide (10 mg/Kg), in order to promote peripheral inflammation response. Three of the LPS-treated mice were injected i.v. with 10 mg/kg of celecoxib, five minutes before the ^11C-VA426 injection, to carry out a competition assay for the COX-2 binding sites. All mice were sacrificed at the time of maximum uptake (10 minutes p.i.), previously assessed in healthy mice, after 3.9 ± 1.1 MBq injection of the radiotracer. Peripheral samples were dissected and counted, as well as for biodistribution studies. Radioactivity concentration in samples was calculated as %ID/g."}, "[9]": {"experiment": "In vivo stability / radiometabolite analysis in healthy mice (HPLC)", "conditions": "10 minutes after injection", "description": "Mice (n = 3) were injected through the tail vein with 3 ± 0.9 MBq of ^11C-VA426 and sacrificed 10 minutes later, under general anaesthesia. Blood was collected by retro-orbital sampling and processed to obtain plasma, as described above. Radioactive species contained in plasma were extracted by mixing an aliquot (500 μL) of plasma with CH3CN solution (1 : 1 v/v). Acetonitrile extracts were centrifuged and supernatant filtered with a MillexGX® syringe system for HPLC (Gilson Italia Srl, 321 pump, UV/VIS-151) injection. For metabolites analysis in liver, a sample was placed in a tissue homogenizer (Potter-Elvehjem) with 2 mL of saline, mechanically sheared until complete homogenization and subsequently treated as described for plasma. HPLC analyses were performed at room temperature using a C18, 250 × 10 mm, 5 μm column, CH3CN/AcONH4 0.05 M (60/40, v/v) as mobile phase, a flow rate of 4.5 mL/min, and UV = 254 nm. Eluted fractions were collected every 30 seconds, for a total of 14 minutes, and counted with a γ-counter (LKB Compugamma CS 1282)."}, "[10]": {"conditions": "celecoxib 10 mg/kg i.v. vs vehicle"}}}
{"compound": "COCCc1cc(-c2ccc(S(C)(=O)=O)cc2)n(-c2ccc(F)cc2)c1C", "note": "[VA426, 1-(4-fluorophenyl)-3-(2-methoxyethyl)-2-methyl-5-(4-(methylsulfonyl)phenyl)-1H-pyrrole]", "values": [{"measurement": "IC50", "setting": "COX-2 [1]", "value": 18, "unit": "nM"}, {"measurement": "Selectivity Index (IC50 COX-1/IC50 COX-2)", "setting": "COX-2 [1]", "value": "> 5555"}, {"measurement": "toxic effects", "setting": "[2]", "value": "without toxic effects"}]}
{"compound": "Cc1c(CCO[11CH3])cc(-c2ccc(S(C)(=O)=O)cc2)n1-c1ccc(F)cc1", "note": "[^11C-VA426]", "values": [{"measurement": "penetration through the BBB", "setting": "[3]; brain distribution data", "value": "good radioactivity penetration through the BBB"}, {"measurement": "time of highest radioactivity concentration in brain", "setting": "[3]; i.v.", "value": 10, "unit": "min p.i."}, {"measurement": "radioactivity uptake in liver", "setting": "[3]; i.v., 30 min p.i., n = 3", "value": "0.81 ± 0.28", "unit": "%ID/g"}, {"measurement": "change of uptake in intestine after celecoxib pretreatment", "setting": "COX-2 [4]; [10]", "value": "−39", "unit": "%"}, {"measurement": "change of uptake in kidney after celecoxib pretreatment", "setting": "COX-2 [4]; [10]", "value": "−36", "unit": "%"}, {"measurement": "change of uptake in liver after celecoxib pretreatment", "setting": "COX-2 [4]; [10]", "value": "−65", "unit": "%"}, {"measurement": "difference of uptake between vehicle and celecoxib pretreated rats", "setting": "COX-2 [4]; peripheral tissues and central areas", "value": "no significant differences"}, {"measurement": "difference of concentration in striatum, lesioned hemisphere vs contralateral PBS-injected control", "setting": "COX-2 [5]; one day after LPS, 10, 30 and 60 minutes", "value": "no significant differences"}, {"measurement": "tracer uptake in contralateral healthy cortex", "setting": "COX-2 [5]; one day after intrastriatal LPS, 60 min p.i.", "value": "0.087 ± 0.012", "unit": "%ID/g"}, {"measurement": "difference between LPS-treated and healthy contralateral hemisphere, all regions", "setting": "COX-2 [5]; twelve days after LPS injection", "value": "no differences were found"}, {"measurement": "time of maximum radioactivity concentration in all brain regions", "setting": "[6]", "value": "10 minutes after tracer injection"}, {"measurement": "time of maximum uptake in liver", "setting": "[6]", "value": 10, "unit": "minutes after injection"}, {"measurement": "maximum radioactivity concentration in pons", "setting": "[6]; 10 minutes after injection", "value": "2.69 ± 0.81", "unit": "%ID/g"}, {"measurement": "maximum uptake in liver", "setting": "[6]; 10 minutes after injection", "value": "7.72 ± 2.52", "unit": "%ID/g"}, {"measurement": "PET radioactivity distribution", "setting": "COX-2 [7]; healthy mice, 0 to 30 minutes after injection", "value": "accumulates rapidly and primarily in the liver and kidneys"}, {"measurement": "effect of celecoxib pretreatment on PET radioactivity distribution", "setting": "COX-2 [7]; healthy mouse, celecoxib 10 mg/kg i.v., 10 and 30 minutes", "value": "slightly reduced radioactivity distribution in intestine regions"}, {"measurement": "effect of celecoxib on tracer uptake (%ID/g) in all peripheral regions including plasma", "setting": "COX-2 [8]", "value": "dramatic reduction in tracer uptake"}, {"measurement": "first radioactive metabolite, fraction of total radioactivity in liver", "setting": "[9]; healthy mice", "value": 39.8, "unit": "%"}, {"measurement": "parent compound, fraction of total activity in liver", "setting": "[9]; healthy mice", "value": 34.9, "unit": "%"}, {"measurement": "parent compound, fraction of total activity in plasma", "setting": "[9]; healthy mice", "value": 47.1, "unit": "%"}, {"measurement": "radioactive metabolite (retention time 3 min), fraction of total radioactivity in plasma", "setting": "[9]; healthy mice", "value": 45.1, "unit": "%"}, {"measurement": "radioactive metabolite (retention time 5 min), fraction of total radioactivity in plasma", "setting": "[9]; healthy mice", "value": 6.6, "unit": "%"}, {"measurement": "second radioactive metabolite, fraction of total radioactivity in liver", "setting": "[9]; healthy mice", "value": 21.6, "unit": "%"}, {"measurement": "third radioactive metabolite (11.5 min of retention time), fraction of total radioactivity in liver", "setting": "[9]; healthy mice", "value": 3.3, "unit": "%"}, {"measurement": "radioactivity due to radioactive metabolites", "setting": "[9]; plasma and liver", "value": "over 50%"}]}
